Laboratory results as given in the CheMixHub viscosity set.

Assay: xn = mol fraction of the nth substance listed

CCCCCCCCCO + COC(=O)OC
Settings | viscosity [mPa·s]
293.15 K, 101 kPa, x1 = 0.008 | 0.63
293.15 K, 101 kPa, x2 = 0.06435 | 9.044
293.15 K, 101 kPa, x2 = 0.1251 | 7.282
293.15 K, 101 kPa, x2 = 0.2318 | 5.067
293.15 K, 101 kPa, x2 = 0.322 | 3.834
293.15 K, 101 kPa, x2 = 0.4095 | 2.962
293.15 K, 101 kPa, x2 = 0.4994 | 2.281
293.15 K, 101 kPa, x2 = 0.6032 | 1.706
293.15 K, 101 kPa, x2 = 0.699 | 1.3
293.15 K, 101 kPa, x2 = 0.7961 | 0.991
293.15 K, 101 kPa, x2 = 0.8901 | 0.776
303.15 K, 100 kPa, x2 = 0.1 | 5.632
303.15 K, 100 kPa, x2 = 0.1999 | 4.161
303.15 K, 100 kPa, x2 = 0.3 | 3.081
303.15 K, 100 kPa, x2 = 0.4 | 2.342
303.15 K, 100 kPa, x2 = 0.5 | 1.81
303.15 K, 100 kPa, x2 = 0.6 | 1.384
303.15 K, 100 kPa, x2 = 0.7 | 1.06
303.15 K, 100 kPa, x2 = 0.8 | 0.831
303.15 K, 100 kPa, x2 = 0.9 | 0.658
303.15 K, 101 kPa, x1 = 0.00584 | 0.55
303.15 K, 101 kPa, x2 = 0.04989 | 6.721
303.15 K, 101 kPa, x2 = 0.1183 | 5.358
303.15 K, 101 kPa, x2 = 0.2164 | 3.942
303.15 K, 101 kPa, x2 = 0.3115 | 2.991
303.15 K, 101 kPa, x2 = 0.4106 | 2.28
303.15 K, 101 kPa, x2 = 0.4935 | 1.832
303.15 K, 101 kPa, x2 = 0.6036 | 1.368
303.15 K, 101 kPa, x2 = 0.7016 | 1.059
303.15 K, 101 kPa, x2 = 0.7951 | 0.835
303.15 K, 101 kPa, x2 = 0.8982 | 0.657
308.15 K, 100 kPa, x2 = 0.1 | 4.801
308.15 K, 100 kPa, x2 = 0.1999 | 3.592
308.15 K, 100 kPa, x2 = 0.3 | 2.702
308.15 K, 100 kPa, x2 = 0.4 | 2.074
308.15 K, 100 kPa, x2 = 0.5 | 1.627
308.15 K, 100 kPa, x2 = 0.6 | 1.253
308.15 K, 100 kPa, x2 = 0.7 | 0.972
308.15 K, 100 kPa, x2 = 0.8 | 0.769
308.15 K, 100 kPa, x2 = 0.9 | 0.617
313.15 K, 100 kPa, x2 = 0.1 | 4.133
313.15 K, 100 kPa, x2 = 0.1999 | 3.123
313.15 K, 100 kPa, x2 = 0.3 | 2.398
313.15 K, 100 kPa, x2 = 0.4 | 1.848
313.15 K, 100 kPa, x2 = 0.5 | 1.467
313.15 K, 100 kPa, x2 = 0.6 | 1.141
313.15 K, 100 kPa, x2 = 0.7 | 0.893
313.15 K, 100 kPa, x2 = 0.8 | 0.713
313.15 K, 100 kPa, x2 = 0.9 | 0.579
313.15 K, 101 kPa, x1 = 0.00538 | 0.492
313.15 K, 101 kPa, x2 = 0.06799 | 4.566
313.15 K, 101 kPa, x2 = 0.1245 | 3.835
313.15 K, 101 kPa, x2 = 0.2254 | 2.876
313.15 K, 101 kPa, x2 = 0.2945 | 2.39
313.15 K, 101 kPa, x2 = 0.433 | 1.677
313.15 K, 101 kPa, x2 = 0.5255 | 1.342
313.15 K, 101 kPa, x2 = 0.6009 | 1.118
313.15 K, 101 kPa, x2 = 0.6997 | 0.882
313.15 K, 101 kPa, x2 = 0.8024 | 0.702
313.15 K, 101 kPa, x2 = 0.9014 | 0.571
318.15 K, 100 kPa, x2 = 0.1 | 3.586
318.15 K, 100 kPa, x2 = 0.1999 | 2.735
318.15 K, 100 kPa, x2 = 0.3 | 2.137
318.15 K, 100 kPa, x2 = 0.4 | 1.662
318.15 K, 100 kPa, x2 = 0.5 | 1.317
318.15 K, 100 kPa, x2 = 0.6 | 1.04
318.15 K, 100 kPa, x2 = 0.7 | 0.823
318.15 K, 100 kPa, x2 = 0.8 | 0.665
318.15 K, 100 kPa, x2 = 0.9 | 0.545
323.15 K, 100 kPa, x2 = 0.1 | 3.119
323.15 K, 100 kPa, x2 = 0.1999 | 2.397
323.15 K, 100 kPa, x2 = 0.3 | 1.888
323.15 K, 100 kPa, x2 = 0.4 | 1.494
323.15 K, 100 kPa, x2 = 0.5 | 1.199
323.15 K, 100 kPa, x2 = 0.6 | 0.951
323.15 K, 100 kPa, x2 = 0.7 | 0.763
323.15 K, 100 kPa, x2 = 0.8 | 0.621
323.15 K, 100 kPa, x2 = 0.9 | 0.514
